Laboratory results from paper PMC9865825, “Synthesis and Antiparasitic Activity of New Trithiolato-Bridged Dinuclear Ruthenium(II)-arene-carbohydrate Conjugates” (Molecules, 2023).
Where two headings read alike, the source gives them in different places.

Tests used:
[1] = test system: T. gondii β-gal tachyzoites; test: In vitro proliferation of T. gondii β-gal tachyzoites in HFF, β-galactosidase colorimetric test (primary screening and IC50); assay type: cell-based, Toxoplasma gondii; conditions: for T. Gondii β-gal Growth (%): 72 h, tachyzoites in HFF, vs 0.1% DMSO control = 100%; for IC50: eight serial concentrations 7 nM to 1 µM; for IC50 fold lower compared to pyrimethamine: T. gondii β-gal, pyrimethamine IC50 = 0.326 µM
Protocol: In a primary screening, each compound was evaluated at two concentrations 0.1 and 1 µM and added to the media prior to the infection as previously described. Control non-infected non-treated HFF cultures and T. gondii β-gal infected but not-treated cultures were cultivated in complete medium containing 0.01 or 0.1% DMSO. The 96-well plates were incubated for 72 h at 37 °C/5% CO2 as previously described.
For the IC50 determination on T. gondii β-gal, eight serial concentrations ranging from 7 nM to 1 μM were tested for each selected compound as previously described and the β-galactosidase assay was performed as reported. Briefly, infected HFF cultures in 96-well plates were lysed with PBS containing 0.05% Triton X-100. Then the substrate chlorophenolred-β-D-galactopyranoside (CPRG; Roche Diagnostics, Rotkreuz, Switzerland) was added in a final concentration of 0.5 mM. Absorption was measured at 570 nm wavelength using an EnSpire® multimode plate reader (PerkinElmer, Inc., Waltham, MA, USA).

in vitro = conditions: human
Protocol: (§1) The viability of treated HFF was measured by the alamarBlue metabolic assay, and the proliferation of T. gondii β-gal was quantified by the β-galactosidase colorimetric test. In both cases, results are expressed as percentage (%) compared to control parasitic and host cells treated with 0.1% DMSO for which proliferation and viability were set to 100% (Table 1).
(§2) All tissue culture media were purchased from Gibco-BRL, and biochemical agents from Sigma-Aldrich. […] Transgenic T. gondii β-gal tachyzoites (expressing the β-galactosidase gene from Escherichia coli) from RH strain were kindly provided by Prof.
(§3) The screening sequence for the compounds was described in previous reports. All compounds were prepared as 1 mM stock solutions from powder in dimethyl sulfoxide (DMSO, Sigma, St. Louis, MO, USA). For in vitro activity and cytotoxicity assays, HFF were seeded at 5 × 10^3/well in 96 well plates and allowed to grow to confluence in complete culture medium at 37 °C and 5% CO2.
(§4) All calculations were performed using the corresponding software tool contained in the Excel software package (Microsoft, Redmond, WA, USA). […] Then the medium was removed, the plates were washed once with PBS and 200 μL of resazurin (1:200 dilution in PBS) were added to each well. […] Fluorescence was measured at two different time points: T0 as starting timepoint and T5h as at 5 h later. Relative fluorescence units were calculated from time points with linear increases.

[2] = test system: T. gondii β-gal tachyzoites; set-up: method as in PMID 34144354, PMID 32347622, doi:10.3390/inorganics9080059, PMID 36500266; conditions: cited from earlier work; for T. Gondii β-gal Growth (%): tachyzoites in HFF, vs 0.1% DMSO control = 100%
[3] = test system: human foreskin fibroblasts (HFF); set-up: method as in PMID 34144354, PMID 32347622, doi:10.3390/inorganics9080059, PMID 36500266; conditions: cited from earlier work; for HFF Viability (%): non-infected HFF, vs 0.1% DMSO control = 100%; for HFF Viability at 2.5 µM (%): control 0.25% DMSO = 100%
[4] = test system: human foreskin fibroblasts (HFF); test: in vitro
Protocol: as §1, §2, §3, §4

[5] = Stability in DMSO-d6 followed by 1H NMR; conditions: 25 °C, 5 min and more than 1 month after sample preparation

| Structure (SMILES) | T. Gondii β-gal Growth (%) ([1]; 0.1 µM) | T. Gondii β-gal Growth (%) ([1]; 1 µM) | IC50 [1] | T. Gondii β-gal Growth (%) ([2]; 0.1 µM) | T. Gondii β-gal Growth (%) ([2]; 1 µM) | HFF Viability (%) ([3]; 0.1 µM) | HFF Viability (%) ([3]; 1 µM) | HFF Viability (%) ([4]; 0.1 µM) | HFF Viability (%) ([4]; 1 µM) | IC50 [2] | further results |
| --- | --- | --- | --- | --- | --- | --- | --- | --- | --- | --- | --- |
| C#CCCCC(=O)Oc1ccc([S-])cc1.CC(C)(C)c1ccc(C[S-])cc1.CC(C)(C)c1ccc(C[S-])cc1.Cc1ccc(C(C)C)cc1.Cc1ccc(C(C)C)cc1.[Cl-].[Ru+2].[Ru+2] [Compound 6] | 4 ± 0% | 0 ± 0% | 23 nM | – | – | – | – | – | – | – | – |
| CC(=O)OC[C@H]1O[C@@H](N=[N+]=[N-])[C@H](OC(C)=O)[C@@H](OC(C)=O)[C@@H]1OC(C)=O [Compound 10, 2,3,4,6-tetra-O-acetyl-β-D-glucopyranosyl azide] | 101 ± 1% | 99 ± 0% | – | – | – | – | – | – | – | – | Antiparasitic activity (in words) ([1]; 0.1 and 1 µM): neither antiparasitic activity; viability at 72 h, 0.1 µM (in vitro): 98 ± 1%; viability at 72 h, 1 µM (in vitro): 99% |
| C#CCNC(=O)Cc1ccc([S-])cc1.CC(C)(C)c1ccc(C[S-])cc1.CC(C)(C)c1ccc(C[S-])cc1.Cc1ccc(C(C)C)cc1.Cc1ccc(C(C)C)cc1.[Cl-].[Ru+2].[Ru+2] [Compound 8] | – | – | – | 52 ± 13% | 3 ± 1% | 71 ± 2% | 46 ± 6% | – | – | – | – |
| CC(=O)OC[C@H]1O[C@@H](OCCCn2cc(CCCC(=O)Nc3ccc([S-])cc3)nn2)[C@H](OC(C)=O)[C@@H](OC(C)=O)[C@H]1OC(C)=O.CC(C)(C)c1ccc(C[S-])cc1.CC(C)(C)c1ccc(C[S-])cc1.Cc1ccc(C(C)C)cc1.Cc1ccc(C(C)C)cc1.[Cl-].[Ru+2].[Ru+2] [Compound 23] | 85 ± 1% | 1 ± 0% | 32 nM | – | – | – | – | 99 ± 1% | 101 ± 1% | – | IC50 fold lower compared to pyrimethamine [1]: 10 fold; HFF Viability at 2.5 µM (%) [4]: 92% |
| CC(C)(C)c1ccc(C[S-])cc1.CC(C)(C)c1ccc(C[S-])cc1.Cc1ccc(C(C)C)cc1.Cc1ccc(C(C)C)cc1.Oc1ccc([S-])cc1.[Cl-].[Ru+2].[Ru+2] [Compound 2] | – | – | – | 66 ± 14% | 2 ± 0% | 76 ± 6% | 46 ± 6% | – | – | 117 nM | HFF Viability at 2.5 µM (%) [3]: 56% |
| CC(=O)OC[C@H]1O[C@@H](n2cc(CCCC(=O)Nc3ccc([S-])cc3)nn2)[C@H](OC(C)=O)[C@@H](OC(C)=O)[C@@H]1OC(C)=O.CC(C)(C)c1ccc(C[S-])cc1.CC(C)(C)c1ccc(C[S-])cc1.Cc1ccc(C(C)C)cc1.Cc1ccc(C(C)C)cc1.[Cl-].[Ru+2].[Ru+2] [Compound 20] | 100 ± 1% | 1 ± 2% | 110 nM | – | – | – | – | 98 ± 1% | 99 ± 0% | – | HFF Viability at 2.5 µM (%) [4]: 77%; Stability in DMSO-d6 (1H NMR spectra) [5]: no significant modifications |
| CC(C)(C)c1ccc(C[S-])cc1.CC(C)(C)c1ccc(C[S-])cc1.Cc1ccc(C(C)C)cc1.Cc1ccc(C(C)C)cc1.O=C(O)Cc1ccc([S-])cc1.[Cl-].[Ru+2].[Ru+2] [Compound 4] | – | – | – | 114 ± 2% | 110 ± 2% | 91 ± 4% | 73 ± 1% | – | – | – | – |
| CC(C)(C)c1ccc(C[S+]2[Ru-]3[S+](Cc4ccc(C(C)(C)C)cc4)[Ru-]2[S+]3c2ccccc2CO)cc1.Cc1ccc(C(C)C)cc1.Cc1ccc(C(C)C)cc1.[Cl-] (centres unmarked) [Compound 5] | – | – | – | 2 ± 0% | 1 ± 0% | 80 ± 1% | 69 ± 6% | – | – | 38 nM | HFF Viability at 2.5 µM (%) [3]: 4% |
| CC(=O)OC[C@H]1O[C@@H](OCCCc2cn(Cc3ccccc3[S-])nn2)[C@H](OC(C)=O)[C@@H](OC(C)=O)[C@H]1OC(C)=O.CC(C)(C)c1ccc(C[S-])cc1.CC(C)(C)c1ccc(C[S-])cc1.Cc1ccc(C(C)C)cc1.Cc1ccc(C(C)C)cc1.[Cl-].[Ru+2].[Ru+2] [Compound 26] | 89 ± 1% | 0 ± 0% | 153 nM | – | – | – | – | 98 ± 1% | 99 ± 1% | – | IC50 fold lower compared to pyrimethamine [1]: 2 fold; HFF Viability at 2.5 µM (%) [4]: 97%; Stability in DMSO-d6 (1H NMR spectra) [5]: no significant modifications |
| CC(=O)OC[C@H]1O[C@@H](OCCCc2cn(Cc3ccccc3[S-])nn2)[C@H](OC(C)=O)[C@@H](OC(C)=O)[C@@H]1OC(C)=O.CC(C)(C)c1ccc(C[S-])cc1.CC(C)(C)c1ccc(C[S-])cc1.Cc1ccc(C(C)C)cc1.Cc1ccc(C(C)C)cc1.[Cl-].[Ru+2].[Ru+2] [Compound 25] | 75 ± 2% | 27 ± 0% | – | – | – | – | – | 98 ± 1% | 97 ± 1% | – | Stability in DMSO-d6 (1H NMR spectra) [5]: no significant modifications |
| CC(C)(C)c1ccc(C[S+]2[Ru-]3[S+](Cc4ccc(C(C)(C)C)cc4)[Ru-]2[S+]3c2ccccc2CN=[N+]=[N-])cc1.Cc1ccc(C(C)C)cc1.Cc1ccc(C(C)C)cc1.[Cl-] (centres unmarked) [Compound 9] | – | – | – | 9 ± 1% | 1 ± 1% | 96 ± 1% | 64 ± 1% | – | – | 48 nM | HFF Viability at 2.5 µM (%) [3]: 11% |
| CC(=O)OC[C@H]1O[C@@H](OCCn2cc(CCCC(=O)Nc3ccc([S-])cc3)nn2)[C@H](OC(C)=O)[C@@H](OC(C)=O)[C@H]1OC(C)=O.CC(C)(C)c1ccc(C[S-])cc1.CC(C)(C)c1ccc(C[S-])cc1.Cc1ccc(C(C)C)cc1.Cc1ccc(C(C)C)cc1.[Cl-].[Ru+2].[Ru+2] [Compound 22] | 73 ± 1% | 2 ± 0% | 298 nM | – | – | – | – | 100 ± 0% | 101 ± 0% | – | HFF Viability at 2.5 µM (%) [4]: 73%; Stability in DMSO-d6 (1H NMR spectra) [5]: no significant modifications |
| CC(=O)OC[C@H]1O[C@@H](OCCn2cc(CCCC(=O)Nc3ccc([S-])cc3)nn2)[C@H](OC(C)=O)[C@@H](OC(C)=O)[C@@H]1OC(C)=O.CC(C)(C)c1ccc(C[S-])cc1.CC(C)(C)c1ccc(C[S-])cc1.Cc1ccc(C(C)C)cc1.Cc1ccc(C(C)C)cc1.[Cl-].[Ru+2].[Ru+2] [Compound 21] | 87 ± 1% | 1 ± 0% | 87 nM | – | – | – | – | 100 ± 1% | 101 ± 0% | – | – |
| CCc1nc(N)nc(N)c1-c1ccc(Cl)cc1 [Pyrimethamine, reference compound] | – | – | – | – | – | – | – | – | – | 326 nM | – |
| CC(C)(C)c1ccc(C[S+]2[Ru-]3[S+](Cc4ccc(C(C)(C)C)cc4)[Ru-]2[S+]3c2ccc(N)cc2)cc1.Cc1ccc(C(C)C)cc1.Cc1ccc(C(C)C)cc1.[Cl-] (centres unmarked) [Compound 3] | – | – | – | 57 ± 1% | 2 ± 0% | 74 ± 2% | 48 ± 1% | – | – | 153 nM | HFF Viability at 2.5 µM (%) [3]: 51% |
| C#CCCCC(=O)Nc1ccc([S+]2[Ru-]3[S+](Cc4ccc(C(C)(C)C)cc4)[Ru-]2[S+]3Cc2ccc(C(C)(C)C)cc2)cc1.Cc1ccc(C(C)C)cc1.Cc1ccc(C(C)C)cc1.[Cl-] (centres unmarked) [Compound 7] | – | – | – | 21 ± 2% | 0 ± 0% | – | – | – | – | 38 nM | – |
| CC(=O)OC[C@H]1O[C@@H](n2cc(CCCC(=O)Oc3ccc([S-])cc3)nn2)[C@H](OC(C)=O)[C@@H](OC(C)=O)[C@@H]1OC(C)=O.CC(C)(C)c1ccc(C[S-])cc1.CC(C)(C)c1ccc(C[S-])cc1.Cc1ccc(C(C)C)cc1.Cc1ccc(C(C)C)cc1.[Cl-].[Ru+2].[Ru+2] [Compound 19] | 9 ± 1% | 0 ± 0% | 18 nM | – | – | – | – | 102 ± 1% | 97 ± 1% | – | HFF Viability at 2.5 µM (%) [4]: 29% |
